# Experimental data reported in US10160949B2, “Agent for improving sperm-motility” (Tokyo Metropolitan Geriatric Hospital and Institute of …, priority 2013, dated 2018).
# Read-outs that look alike come from different tables or passages of the source.
# How the values were obtained:
# [1] = system: sperm on day 5 after collection; assay: Migration distance of forwardly moving sperm by video recording and CASA (ImageJ); assay type: cell-based, human; details: FIG. 5; for average migration distance compared among untreated, H2 and N2 groups: 10 patients, 10 s of forward movement, P=0.2193
# Protocol: Then, the recorded video was analyzed by the CASA system (NIH) (computer assisted sperm analysis using ImageJ, description of necessary components and use of free software) to determine the migration distance of forwardly moving sperm.
# [2] = system: sperm that had a passage of five days or more after collection; details: for samples in which the percentage of sperm with forward motility was increased: of 17 samples with forward motility less than 15%; for percentage of sperm with forward motility compared with control (untreated) group: duration of gas treatment 5 min
# Protocol: In principle, the percentage (%) of sperm with motility (A+B+C)/(A+B+C+D) was calculated as an average as obtained by repeating the above examination two or three times. […] Here, as used herein, the percentage of sperm with forward motility is represented by the formula: (A+B)/(A+B+C+D).
# The percentage of sperm with motility (the percentage of sperm with forward motility and the percentage of sperm with non-forward motility) and the percentage of immotile sperm were compared between the groups. […] To check whether or not the gas passed through the acryl box, another passage was inserted into a water-containing beaker. Whether the gas passed therethrough was confirmed by observing the occurrence of bubbling via the passage in the beaker. With regard to the N2 gas, the procedure was likewise performed and all were carried out at room temperature. A hundred μl of the sperm suspension was added dropwise to a 1008 dish. Before the mixed gas was made to pass therethrough, the dish was placed in the acryl box. […] After 40 min had passed, each sperm suspension was well mixed by pipetting. Next, several μl of the sperm suspension was added dropwise to a Makler container. Then, the sperm concentration, the number of sperm with forward motility, the number of sperm with non-forward motility, and the number of immotile sperm were determined visually. Also, with respect to the untreated group in which the sperm suspension was used as it was, the sperm concentration, the number of sperm with forward motility, the number of sperm with non-forward motility, and the number of immotile sperm were likewise determined visually. […] Samples of the untreated group in which the percentage of sperm with forward motility exceeded 15% were excluded. Regarding the rest samples, one sample was grouped into three treatment groups and each treatment group was measured twice. Specifically, with respect to each sample, the ratio of the number of sperm with forward motility to the total number of sperm in the visual field was defined as the percentage of sperm with forward motility. The ratio of the number of sperm with some motility (a moving flagellum), but without forward motility to the total number of sperm was defined as the percentage of sperm with non-forward motility.
# [3] = Concentration of hydrogen in liquid (hydrogen electrode); assay type: physicochemical; details: 10 min after 30 min of the H2 treatment
# Protocol: Next, the culture solution was left to stand. […] The culture solution as so prepared was used to wash sperm, and a change in their motility was examined. […] After re-centrifugation, the concentration was decreased to 100 μM.
# [4] = system: freeze-thawed sperm
# Protocol: Semen that was transferred to the clinic within four hours after ejaculation was suspended in a solution in which equal amounts of the Cleavage Medium and TEST-yolk buffer (TYB; Irvine Scientific, CA, USA) had been mixed. Then, the mixture was dispensed into cryotubes. The resulting cryotubes were once exposed to nitrogen vapor for 5 min, and were then cryopreserved in liquid nitrogen. At the time of thawing, each cryotube was heated in warm water at 37° C. After that, the sperm suspension in the cryotube was dispensed into four vials.
# After the dispensed sperm suspension was washed for 5 min with each sperm washing medium, the motility of sperm was measured.
# [5] = system: mitochondria of sperm; details: FIG. 7(d); compared with untreated and N2 treatment groups; P<0.001
# Text: The stained sperm were visualized using a laser scanning confocal microscope (Leica, Wetzlar, Germany). In addition, the viability of sperm was checked by PI fluorescence staining.
# Meanwhile, the differential interference images were designated as DIC (Differential interference contrast). […] FIG. 7(d) is a graph showing the results of semi-quantifying, using the ImageJ, the fluorescent intensity of the sperm stained with TMRM.
# [6] = mixed gas containing 50% hydrogen molecules used for bubbling of a liquid; cited from earlier work
# [7] = FIG. 3(a), sperm 5 days or more after collection, mixed gas treatment 40 min, 30 samples
# [8] = FIG. 4, 17 samples from patients with forward motility less than 15%
structure (smiles),measurement,setting,value
"N#N [N2, nitrogen, reference compound]","average migration distance compared among untreated, H2 and N2 groups",[1],no significant difference
same,percentage of sperm with forward motility (average),[2]; [7],7.7%
same,percentage of sperm with forward motility (average),[2]; [8],3.6%
same,samples in which the percentage of sperm with forward motility was increased,[2]; FIG. 4,four
"[HH] [H2, hydrogen]","average migration distance compared among untreated, H2 and N2 groups",[1],no significant difference
same,migration distance per second of the sperm,[1]; compared with untreated and N2 groups,the longest one
same,hydrogen in 10 μl of the sperm suspension,[3],eliminated
same,percentage of sperm with forward motility (average),"[4]; FIG. 8(a), 6 samples, patients with forward motility 50% or higher, washing medium containing 50% of H2, 5 min",61.3%
same,percentage of sperm with forward motility (average),"[4]; FIG. 8(a), 6 samples, patients with forward motility 50% or higher, washing medium containing 75% of H2, 5 min",71.0%
same,percentage of sperm with forward motility (average),"[4]; FIG. 8(a), 6 samples, patients with forward motility 50% or higher, washing medium containing 100% of H2, 5 min",70.0%
same,percentage of sperm with forward motility (average),"[4]; FIG. 8(b), 15 samples, patients with forward motility less than 50%, washing medium containing 50% of H2, 5 min",41.2%
same,percentage of sperm with forward motility (average),"[4]; FIG. 8(b), 15 samples, patients with forward motility less than 50%, washing medium containing 75% of H2, 5 min",40.8%
same,percentage of sperm with forward motility (average),"[4]; FIG. 8(b), 15 samples, patients with forward motility less than 50%, washing medium containing 100% of H2, 5 min",31.4%
same,percentage of sperm with forward motility (average),[2]; [7],16.8%
same,samples with percentage of sperm with forward motility higher than in the control,"[2]; FIG. 3(b), duration of H2 treatment 30 or 60 min",about 70 % of the samples
same,percentage of sperm with forward motility compared with control (untreated) group,[2]; FIG. 3(b),tended to decrease
same,percentage of sperm with forward motility compared with control (untreated) group,"[2]; FIG. 3(b), listed as gaseous agent for improving sperm-motility",did not result in the recovery of the motility of sperm
same,percentage of sperm with forward motility (average),[2]; [8],11%
same,samples in which the percentage of sperm with forward motility was increased,[2]; FIG. 4,16 samples
same,time course of forward motility after treatment,"[2]; FIG. 6, 30 to 150 min after 30 min H2 treatment, 10 patients",a big change in the forward motility of sperm was not observed
same,motility 24 hours after treatment,"[2]; FIG. 6, H2 treatment 30 min, retreatment 30 min at 24 hours",had motility even after 24 hours
same,samples of sperm with non-forward motility among samples in which forward motility was not recovered,[2]; of 12 samples (25%),3 samples
same,samples in which forward movement was recovered only in the H2 treatment group,"[2]; of 17 samples (35%), no recovery in untreated and N2 groups",Six
same,samples in which the H2 treatment group exhibited a longer migration distance (increased forward motility) than the N2 treatment group,"[2]; of 18 samples in which forward motility was recovered (94%), P<0.01",17 samples
same,intensity of TMRM fluorescence (mitochondrial membrane potential),[5],strong intensity of TMRM fluorescence
same,hydrogen solubility,[6],about 0.4 mM
